For test [1], the target named is COUP transcription factor 2 (Homo sapiens, UniProt P24468). Briefly: Luminescence-based cell-based high throughput dose response assay to identify inhibitors of COUP-TFII (NR2F2). The test is classed as functional.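 Also: HEK293 cells transiently cotransfected with COUP-TFII expression vector and reporter; luciferase reporter luminescence driven by COUP-TFII from the pX2-168 reporter plasmid.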
The next test deals with Galanin receptor type 3 (Homo sapiens, UniProt O60755). In words: Fluorescence-based cell-based primary high throughput dose response assay to identify antagonists of the Galanin Receptor 3 (GalR3). The test is classed as functional.
Chain of Galanin receptor type 3 (O60755 whole entry): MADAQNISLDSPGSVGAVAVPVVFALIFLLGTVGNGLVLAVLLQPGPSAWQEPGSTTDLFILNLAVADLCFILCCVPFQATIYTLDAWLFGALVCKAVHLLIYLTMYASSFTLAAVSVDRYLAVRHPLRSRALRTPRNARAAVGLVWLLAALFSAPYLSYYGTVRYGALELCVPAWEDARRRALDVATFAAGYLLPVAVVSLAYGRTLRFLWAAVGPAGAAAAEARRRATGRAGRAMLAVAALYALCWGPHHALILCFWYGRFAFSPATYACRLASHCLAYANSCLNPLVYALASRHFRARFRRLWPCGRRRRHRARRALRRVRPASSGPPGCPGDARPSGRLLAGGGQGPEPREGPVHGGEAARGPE
A further test can be described thus: cells. The class given is functional, cell-based. The note with it: HEK-CNG.
Test [2] addresses T1, Heat shock factor protein 1 (Mus musculus, UniProt P38532).
T1 sequence (P38532 whole entry): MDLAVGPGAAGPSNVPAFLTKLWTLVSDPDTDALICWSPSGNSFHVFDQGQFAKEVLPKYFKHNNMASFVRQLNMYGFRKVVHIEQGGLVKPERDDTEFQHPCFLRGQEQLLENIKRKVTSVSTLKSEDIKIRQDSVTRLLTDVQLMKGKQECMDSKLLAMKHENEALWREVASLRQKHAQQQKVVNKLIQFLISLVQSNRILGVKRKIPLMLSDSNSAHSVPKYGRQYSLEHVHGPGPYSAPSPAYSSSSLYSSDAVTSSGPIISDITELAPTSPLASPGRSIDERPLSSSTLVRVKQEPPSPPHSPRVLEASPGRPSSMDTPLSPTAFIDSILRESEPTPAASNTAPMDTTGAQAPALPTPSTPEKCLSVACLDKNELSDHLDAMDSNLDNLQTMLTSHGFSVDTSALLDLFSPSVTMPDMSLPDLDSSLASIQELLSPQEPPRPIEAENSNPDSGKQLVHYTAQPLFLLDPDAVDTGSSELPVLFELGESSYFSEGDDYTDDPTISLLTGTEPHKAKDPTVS
Briefly: inhibition of MG132-induced HSE-luciferase signal, confirmation, cell-based, NIH3T3, luminescence, dose retest (AID 2382).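 Also: NIH3T3 fibroblasts with HSF1-driven luciferase reporter stressed by proteasome inhibitor MG132; luminescence from HSF1-driven luciferase expression after 8 hours of MG132 stress.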 The class given is functional.

A further test concerns the target Galanin receptor type 2 (Homo sapiens, UniProt O43603). Briefly: Dose Response cell-based high-throughput screening assay to identify antagonists of galanin receptor 2 (GALR2). [Related pubchem assays: 828, 866 ]. The test is classed as functional.
For test [3], the target named is Sphingosine 1-phosphate receptor 2 (Homo sapiens, UniProt O95136). Briefly: Dose Response Cell Based Assay for Agonists of the S1P2 Receptor of Purchased Analogues. [Related pubchem assays: 729, 843, 854, 736 ]. The test is classed as functional.
Chain of Sphingosine 1-phosphate receptor 2 (O95136 whole entry): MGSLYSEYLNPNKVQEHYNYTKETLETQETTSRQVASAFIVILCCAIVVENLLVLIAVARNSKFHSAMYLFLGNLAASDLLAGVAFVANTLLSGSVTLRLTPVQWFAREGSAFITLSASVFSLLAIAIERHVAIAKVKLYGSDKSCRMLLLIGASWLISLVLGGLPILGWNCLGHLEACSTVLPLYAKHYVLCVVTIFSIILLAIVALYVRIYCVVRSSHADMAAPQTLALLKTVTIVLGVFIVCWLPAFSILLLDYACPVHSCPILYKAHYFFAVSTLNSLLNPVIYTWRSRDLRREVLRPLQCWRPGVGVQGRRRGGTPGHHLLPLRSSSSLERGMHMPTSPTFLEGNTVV
The nature of test [4]: M. tuberculosis H37Rv growth inhibitors, H37Rv strain (AID 1626). The test is classed as functional.
Test [5] in a line: A High Throughput Confirmatory Assay used to Identify Novel Compounds that Inhibit Mycobacterium Tuberculosis in the absence of Glycerol. The class given is functional.
Test [6] deals with Glyceraldehyde-3-phosphate dehydrogenase (Homo sapiens, UniProt P04406).
Chain of Glyceraldehyde-3-phosphate dehydrogenase (P04406 whole entry): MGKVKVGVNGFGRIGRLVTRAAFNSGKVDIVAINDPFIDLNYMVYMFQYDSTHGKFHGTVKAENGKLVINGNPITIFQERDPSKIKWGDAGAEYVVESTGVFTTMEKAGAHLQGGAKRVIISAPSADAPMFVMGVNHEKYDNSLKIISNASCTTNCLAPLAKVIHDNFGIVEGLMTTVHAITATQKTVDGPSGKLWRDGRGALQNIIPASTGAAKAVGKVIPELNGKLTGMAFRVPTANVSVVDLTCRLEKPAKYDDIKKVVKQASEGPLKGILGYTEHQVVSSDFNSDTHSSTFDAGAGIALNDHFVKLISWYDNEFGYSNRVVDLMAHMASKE
The target of test [7] is T2, Bcl-2-related protein A1 (Mus musculus, UniProt Q07440).
T2 sequence (Q07440 whole entry): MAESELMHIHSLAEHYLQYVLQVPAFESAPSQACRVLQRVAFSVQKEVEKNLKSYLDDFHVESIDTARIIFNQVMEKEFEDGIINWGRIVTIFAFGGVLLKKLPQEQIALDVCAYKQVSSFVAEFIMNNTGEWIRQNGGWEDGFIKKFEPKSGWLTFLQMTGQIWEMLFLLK
In words: Bfl-1 binding inhibitors, SAR follow-up, biochemical, fluorescence polarization (AID 1070).

Test [8] addresses T2, Bcl-2-related protein A1. In words: Bfl-1 inhibitors blocking BH3 peptide binding, confirmation, biochemical, TR-FRET, mouse Bfl-1 (AID 621).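 Also: TR-FRET binding of GST-Bfl-1 to FITC-labelled Bid peptide via terbium antibody.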
Test [9] deals with HEK293. In words: NOD2 signaling inhibitors in MDP-stimulated cells, cell-based, uHTS, luminescence (AID 2001). The note with it: Homo sapiens. The test is classed as functional.
In test [10] the target is T3, Calpain-2 catalytic subunit (Sus scrofa, UniProt P43367).
T3 sequence (P43367 whole entry): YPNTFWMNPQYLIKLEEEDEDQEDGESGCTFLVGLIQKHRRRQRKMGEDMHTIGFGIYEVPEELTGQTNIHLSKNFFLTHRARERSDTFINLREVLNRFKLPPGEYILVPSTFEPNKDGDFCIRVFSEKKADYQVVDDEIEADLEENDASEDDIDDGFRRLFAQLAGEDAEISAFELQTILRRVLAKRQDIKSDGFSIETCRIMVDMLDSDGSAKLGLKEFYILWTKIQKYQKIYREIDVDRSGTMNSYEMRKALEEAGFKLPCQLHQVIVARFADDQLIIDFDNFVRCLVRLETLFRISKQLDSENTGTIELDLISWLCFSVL
Briefly: pig calpain II inhibitor potency, dose response, biochemical, fluorogenic peptide substrate (AID 1420). The test is classed as functional.

In test [11] the test system is HEK293. Briefly: cells. The test is classed as functional, cell-based. The note with it: Homo sapiens.
Test [12] relates to HEK293. Briefly: NOD1 signaling inhibitors, primary screen, cell-based, luminescence, uHTS (AID 1578). The class given is functional. The settings on record: Homo sapiens.
The test system of test [13] is HEK293. Briefly: cells. The note with it: Homo sapiens. The test is classed as functional, cell-based. This is another data set of the same source.
A further test deals with Aspartyl aminopeptidase (Plasmodium falciparum 3D7, UniProt Q8I2J3). Briefly: Counterscreen for inhibitors of M1 and M17 aminopeptidases: QFRET-based biochemical high throughput dose response assay for inhibitors of the Plasmodium falciparum M18 Aspartyl Aminopeptidase (PFM18AAP). [Related PubChem assays: 1619 (Screening assay (M17LAP inhibitors).), 1445 (Screening assay (M1AAP inhibitors).)]. In general terms: Counterscreens check selectivity or assay interference.
Chain of Aspartyl aminopeptidase (Q8I2J3 whole entry): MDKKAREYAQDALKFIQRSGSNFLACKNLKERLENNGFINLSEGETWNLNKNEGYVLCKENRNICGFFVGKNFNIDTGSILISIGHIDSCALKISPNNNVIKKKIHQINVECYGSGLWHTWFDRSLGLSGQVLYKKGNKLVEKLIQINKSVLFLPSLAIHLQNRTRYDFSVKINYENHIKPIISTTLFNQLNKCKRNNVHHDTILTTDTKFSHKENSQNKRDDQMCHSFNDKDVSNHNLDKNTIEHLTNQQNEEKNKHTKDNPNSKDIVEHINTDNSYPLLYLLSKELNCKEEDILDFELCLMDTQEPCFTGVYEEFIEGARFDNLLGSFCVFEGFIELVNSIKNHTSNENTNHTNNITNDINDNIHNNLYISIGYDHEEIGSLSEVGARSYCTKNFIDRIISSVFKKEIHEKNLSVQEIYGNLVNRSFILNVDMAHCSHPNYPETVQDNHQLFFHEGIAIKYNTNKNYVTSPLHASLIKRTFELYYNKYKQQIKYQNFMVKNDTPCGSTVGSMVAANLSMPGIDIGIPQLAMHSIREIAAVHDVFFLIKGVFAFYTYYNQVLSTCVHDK

The target of another test is T4, Aminopeptidase N (Plasmodium falciparum FcB1/Columbia, UniProt O96935).
T4 sequence (O96935 whole entry): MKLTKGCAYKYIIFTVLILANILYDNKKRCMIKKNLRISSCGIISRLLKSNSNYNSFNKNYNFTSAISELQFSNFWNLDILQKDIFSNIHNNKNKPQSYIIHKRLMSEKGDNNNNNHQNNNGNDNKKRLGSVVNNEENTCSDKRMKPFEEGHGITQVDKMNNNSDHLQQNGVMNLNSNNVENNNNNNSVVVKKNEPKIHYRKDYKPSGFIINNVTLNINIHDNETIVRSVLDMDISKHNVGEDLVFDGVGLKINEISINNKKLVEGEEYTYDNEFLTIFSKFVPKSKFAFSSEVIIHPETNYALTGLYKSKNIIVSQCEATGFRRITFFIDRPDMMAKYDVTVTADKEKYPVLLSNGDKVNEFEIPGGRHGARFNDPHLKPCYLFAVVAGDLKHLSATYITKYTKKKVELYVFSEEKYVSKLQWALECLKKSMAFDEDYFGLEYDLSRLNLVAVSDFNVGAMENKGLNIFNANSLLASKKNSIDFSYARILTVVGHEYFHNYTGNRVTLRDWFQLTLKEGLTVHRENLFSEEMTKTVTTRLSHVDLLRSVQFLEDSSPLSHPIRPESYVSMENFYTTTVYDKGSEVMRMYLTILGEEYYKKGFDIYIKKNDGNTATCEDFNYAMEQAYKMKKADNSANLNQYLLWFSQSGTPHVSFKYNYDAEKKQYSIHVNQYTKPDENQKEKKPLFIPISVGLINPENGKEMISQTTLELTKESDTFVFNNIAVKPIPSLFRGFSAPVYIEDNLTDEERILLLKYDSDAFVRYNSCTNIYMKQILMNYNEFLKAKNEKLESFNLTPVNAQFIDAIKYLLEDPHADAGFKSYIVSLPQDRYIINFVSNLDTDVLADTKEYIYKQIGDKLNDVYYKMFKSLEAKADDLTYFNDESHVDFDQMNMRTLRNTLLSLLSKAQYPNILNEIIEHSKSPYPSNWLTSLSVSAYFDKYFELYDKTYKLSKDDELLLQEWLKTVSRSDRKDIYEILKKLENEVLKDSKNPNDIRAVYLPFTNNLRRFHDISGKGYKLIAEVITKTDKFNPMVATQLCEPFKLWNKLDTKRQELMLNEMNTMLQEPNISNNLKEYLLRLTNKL
In words: P. falciparum M1AAP inhibitors, biochemical, fluorogenic H-Leu-NHMec substrate, 1536-well (AID 1445). More on the design: species or system Plasmodium falciparum 3D7, 3D7.

For a further test, the target named is Procathepsin L (Homo sapiens, UniProt P07711). Briefly: cathepsin L inhibitors, dose response, counter-screen for M1/M17 aminopeptidase inhibitor project, biochemical, QFRET, 1536-well (AID 2214).
Chain of Procathepsin L (P07711 whole entry): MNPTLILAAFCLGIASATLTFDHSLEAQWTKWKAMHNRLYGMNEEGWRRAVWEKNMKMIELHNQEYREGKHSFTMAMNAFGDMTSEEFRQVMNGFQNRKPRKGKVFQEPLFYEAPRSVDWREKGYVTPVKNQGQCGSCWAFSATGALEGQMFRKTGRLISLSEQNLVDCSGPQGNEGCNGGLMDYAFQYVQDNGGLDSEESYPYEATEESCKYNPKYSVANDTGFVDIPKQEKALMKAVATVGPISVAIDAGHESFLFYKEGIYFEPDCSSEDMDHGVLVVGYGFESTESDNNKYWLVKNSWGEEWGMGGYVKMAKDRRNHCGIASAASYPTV
In the next test the target is 14-3-3 protein gamma (Homo sapiens, UniProt P61981). Briefly: modulators of 14-3-3 gamma client binding – dose response (AID 711). The test is classed as functional.
Chain of 14-3-3 protein gamma (P61981 whole entry): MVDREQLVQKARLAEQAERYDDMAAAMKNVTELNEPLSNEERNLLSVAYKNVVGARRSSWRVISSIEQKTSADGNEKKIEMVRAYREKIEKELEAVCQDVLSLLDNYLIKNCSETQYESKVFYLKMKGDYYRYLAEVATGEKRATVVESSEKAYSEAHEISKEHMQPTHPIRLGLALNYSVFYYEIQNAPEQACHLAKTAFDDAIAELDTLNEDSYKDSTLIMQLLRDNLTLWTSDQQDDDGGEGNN
Test [14] has as its target T5, E3 ubiquitin-protein ligase XIAP (Homo sapiens, UniProt P98170). Briefly: Counter Screen using XIAP-Bir3 for Chemical Antagonists of Bir1/2 domains of IAP-family anti-apoptotic proteins. [Related pubchem assays (depositor defined):AID1018, AID1449, AID1514, AID1638, AID1749, AID1750, AID488957, AID488963].
Test [15] addresses T5, E3 ubiquitin-protein ligase XIAP. In words: XIAP antagonists, biochemical, IAP family, fluorescence polarization (AID 1018). The test is classed as functional. (Polarisation of emitted light reports the rotation of a fluorescent probe.)

Our source for the IC50 and EC50 values is ChEMBL document CHEMBL1201862, “PubChem BioAssay data set” (2004).

Each structure is given as a SMILES string. Active and inactive are the calls of the source.

In general, IC50 refers to the point on the concentration scale where inhibition reaches its midpoint. The EC50 is the concentration giving half of the maximal effect.

T5 sequence (P98170 whole entry): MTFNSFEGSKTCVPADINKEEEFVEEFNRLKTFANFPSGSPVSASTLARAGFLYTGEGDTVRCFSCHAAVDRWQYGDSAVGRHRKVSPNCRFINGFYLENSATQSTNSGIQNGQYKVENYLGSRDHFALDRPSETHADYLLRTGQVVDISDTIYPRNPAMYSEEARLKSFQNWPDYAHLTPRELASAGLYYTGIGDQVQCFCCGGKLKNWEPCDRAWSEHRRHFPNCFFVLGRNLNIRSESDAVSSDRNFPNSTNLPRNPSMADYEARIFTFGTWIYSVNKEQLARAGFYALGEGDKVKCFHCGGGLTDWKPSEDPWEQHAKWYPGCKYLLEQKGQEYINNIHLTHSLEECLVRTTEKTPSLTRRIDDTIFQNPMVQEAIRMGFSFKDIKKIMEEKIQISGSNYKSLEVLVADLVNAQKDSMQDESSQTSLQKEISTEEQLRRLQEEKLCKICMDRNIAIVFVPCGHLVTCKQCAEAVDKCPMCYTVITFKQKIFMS
Chain of COUP transcription factor 2 (P24468 whole entry): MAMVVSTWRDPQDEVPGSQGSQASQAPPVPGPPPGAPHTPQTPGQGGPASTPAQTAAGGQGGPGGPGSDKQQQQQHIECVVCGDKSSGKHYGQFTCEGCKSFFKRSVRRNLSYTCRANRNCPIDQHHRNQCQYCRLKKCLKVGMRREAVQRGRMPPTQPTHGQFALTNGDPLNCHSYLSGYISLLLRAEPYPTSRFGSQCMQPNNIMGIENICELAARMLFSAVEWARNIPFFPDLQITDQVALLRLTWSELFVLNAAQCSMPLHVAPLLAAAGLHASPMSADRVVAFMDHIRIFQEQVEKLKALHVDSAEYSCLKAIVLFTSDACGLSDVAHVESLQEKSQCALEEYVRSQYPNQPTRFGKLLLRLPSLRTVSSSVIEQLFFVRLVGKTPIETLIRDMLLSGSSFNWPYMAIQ
Chain of Galanin receptor type 2 (O43603 whole entry): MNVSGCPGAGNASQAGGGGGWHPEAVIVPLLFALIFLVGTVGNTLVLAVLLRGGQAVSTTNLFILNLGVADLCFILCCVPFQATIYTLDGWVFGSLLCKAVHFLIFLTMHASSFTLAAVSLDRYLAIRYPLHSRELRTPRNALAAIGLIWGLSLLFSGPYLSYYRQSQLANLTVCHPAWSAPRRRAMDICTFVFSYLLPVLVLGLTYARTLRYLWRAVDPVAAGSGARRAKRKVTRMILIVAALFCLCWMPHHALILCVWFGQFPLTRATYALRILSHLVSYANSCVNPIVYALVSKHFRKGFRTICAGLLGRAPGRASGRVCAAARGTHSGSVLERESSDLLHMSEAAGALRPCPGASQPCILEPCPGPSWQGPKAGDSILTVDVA

On to `Cc1sc2ncnc(NCCc3ccc(S(N)(=O)=O)cc3)c2c1C`, for which the half-maximal inhibitory concentration (IC50) in [1] is 4.23 µM (active); on Galanin receptor type 3, 2.95 µM (active); against Galanin receptor type 2, > 42 µM (not active). In addition, the EC50 was > 29.9 µM (inactive) in the test “cells” and > 195 µM (not active) in [2].
Take `Cc1nn(CC(=O)c2cc(C)n(Cc3ccccc3)c2C)c(C)c1[N+](=O)[O-]`: the EC50 in test [3] is reported as > 30 µM (not active).
As for `Fc1ccc(-c2nnc(CSc3nnc(-c4cccs4)o3)o2)cc1`, the IC50 in [4] is > 100 µM (active).
On to `CC(Oc1cc2oc(=O)c3c(c2cc1Cl)CCCC3)C(=O)NCc1ccccn1` (configuration not stated), for which, in [5], the IC50 is > 100 µM (active).
For the molecule `O=C1C(Cl)=C(N2CCN(CCOCCO)CC2)C(=O)N1c1ccnc(Cl)c1`, the figures for the IC50 (in test [6]; on Bcl-2-related protein A1 [7]; on Bcl-2-related protein A1 [8]) were > 100 µM (not active), 33.2 µM (active) and 20.5 µM (active), respectively.
As for `O=C(O)C(Cc1ccccc1)N1C(=O)/C(=C/c2cccc3ccccc23)SC1=S` (configuration not stated), the IC50 in the test on HEK293 [9] is 18.5 µM (inactive); in test [10] it was > 50 µM (not active); in the test with HEK293 [11] it was > 20 µM (inactive); with HEK293 [13], > 20 µM (inactive); at Aspartyl aminopeptidase it was > 73.5 µM (not active); on Aminopeptidase N, 14.9 µM (active). In addition, the IC50 on Procathepsin L is reported as 28.4 µM (not active). In addition, in the test with HEK293 [12], the EC50 is 16.5 µM (active).
With `CCn1c(CSc2nnc(-c3cccnc3)n2-c2ccccc2C)nc2cc(C(=O)O)ccc21`, the IC50 is < 781 nM (active) on 14-3-3 protein gamma, > 1.56 µM (inactive) in test [14] and > 781 nM (not active) in test [15].
